Laboratory results taken from patent US20100204203A1, “Chemical Compounds 637: Pyridopyrimidinediones as PDE4 Inhibitors” (priority 2007, published 2010).

Molecular target: recombinant Human Phosphodiesterase B2 (PDE4B2) (Homo sapiens, UniProt Q07343)
Assay: Human Phosphodiesterase B2 Radiometric Assay (yttrium silicate SPA beads, [3H]cyclic AMP)
Assay type: biochemical
Conditions: recombinant human PDE4B2, radiometric SPA assay, 8 nM [3H]cyclic AMP; read-out: PDE4B2 pIC50 (converted)
Method in brief: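 Compounds were preincubated 30 min at 30 °C with 0.1 mg/mL PDE4B2 in 50 mM HEPES pH 7.5, 8.3 mM MgCl2, 1.7 mM EGTA, 0.01% Brij 35. Then 8 nM [3H]cAMP was added for 20 min, stopped with yttrium silicate SPA beads plus 18 mM ZnSO4 capturing product 5′AMP; pIC50 by curve fitting.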

Sequence of recombinant Human Phosphodiesterase B2 (PDE4B2) (Q07343 1-564 isoform Q07343-2): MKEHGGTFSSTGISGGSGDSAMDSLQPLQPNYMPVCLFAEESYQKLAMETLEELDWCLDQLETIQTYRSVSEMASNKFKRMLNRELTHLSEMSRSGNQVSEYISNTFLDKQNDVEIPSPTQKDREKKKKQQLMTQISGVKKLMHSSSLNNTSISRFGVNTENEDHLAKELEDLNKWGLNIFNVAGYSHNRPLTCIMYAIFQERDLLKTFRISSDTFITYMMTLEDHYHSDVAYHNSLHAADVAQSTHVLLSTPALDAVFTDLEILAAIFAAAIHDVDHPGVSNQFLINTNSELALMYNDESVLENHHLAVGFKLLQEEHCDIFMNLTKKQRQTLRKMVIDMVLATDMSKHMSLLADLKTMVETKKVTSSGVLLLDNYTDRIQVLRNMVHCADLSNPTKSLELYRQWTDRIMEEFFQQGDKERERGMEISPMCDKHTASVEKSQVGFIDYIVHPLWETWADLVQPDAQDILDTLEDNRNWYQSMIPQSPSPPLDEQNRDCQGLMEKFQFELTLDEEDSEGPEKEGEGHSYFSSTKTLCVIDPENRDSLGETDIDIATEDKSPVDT

Row | Structure (SMILES) | IC50
1 | CC(C)N1CCN(Cc2ccc(-c3cccc(-n4c(=O)n([C@H]5CC[C@@H](NC(=O)CN6CCCCC6)CC5)c(=O)c5cc(F)cnc54)c3)cc2)CC1 [Example 237, N-{cis-4-[6-fluoro-1-{4′-[(4-isopropylpiperazin-1-yl)methyl]biphenyl-3-yl}-2,4-dioxo-1,4-di-hydropyrido[2,3-d]pyrimidin-3(2H)-yl]cyclohexyl}-2-piperidin-1-ylacetamide] | 0.0398 nM
2 | CC(C)C(=O)N[C@H]1CC[C@@H](n2c(=O)c3cc(F)cnc3n(-c3cccc(-c4ccc(CN5CCN(C(C)C)CC5)cc4)c3)c2=O)CC1 [Example 238, N-{cis-4-[6-fluoro-1-{4′-[(4-isopropylpiperazin-1-yl)methyl]biphenyl-3-yl}-2,4-dioxo-1,4-di-hydropyrido[2,3-d]pyrimidin-3(2H)-yl]cyclohexyl}-2-methyl-propanamide] | 0.2 nM
3 | CC(C)N1CCN(Cc2ccc(-c3cccc(-n4c(=O)n([C@H]5CC[C@@H](NC(=O)c6nccn6C)CC5)c(=O)c5cc(F)cnc54)c3)cc2)CC1 [Example 239, N-{cis-4-[6-fluoro-1-{4′-[(4-isopropylpiperazin-1-yl)methyl]biphenyl-3-yl}-2,4-dioxo-1,4-di-hydropyrido[2,3-d]pyrimidin-3(2H)-yl]cyclohexyl}-1-methyl-1H-imidazole-2-carboxamide] | 0.316 nM
4 | Cc1oncc1C(=O)N[C@H]1CC[C@@H](n2c(=O)c3cc(F)cnc3n(-c3cccc(-c4ccc(CN5CCN(C(C)C)CC5)cc4)c3)c2=O)CC1 [Example 240, N-{cis-4-[6-fluoro-1-{4′-[(4-isopropylpiperazin-1-yl)methyl]biphenyl-3-yl}-2,4-dioxo-1,4-di-hydropyrido[2,3-d]pyrimidin-3(2H)-yl]cyclohexyl}-5-methyl-isoxazole-4-carboxamide] | 0.501 nM
5 | CCN(CC)CC(=O)N[C@H]1CC[C@@H](n2c(=O)c3cc(F)cnc3n(-c3cccc(-c4ccc(CN5CCN(C(C)C)CC5)cc4)c3)c2=O)CC1 [Example 241, N^2,N^2-diethyl-N-{cis-4-[6-fluoro-1-{4′-[(4-isopropylpiperazin-1-yl)methyl]biphenyl-3-yl}-2,4-dioxo-1,4-dihydro-pyrido[2,3-d]pyrimidin-3(2H)-yl]cyclohexyl} glycinamide] | 0.0794 nM
6 | Cc1cccc(C(=O)N[C@H]2CC[C@@H](n3c(=O)c4cc(F)cnc4n(-c4cccc(-c5ccc(CN6CCN(C(C)C)CC6)cc5)c4)c3=O)CC2)n1 [Example 242, N-{cis-4-[6-fluoro-1-{4′-[(4-isopropylpiperazin-1-yl)methyl]biphenyl-3-yl}-2,4-dioxo-1,4-di-hydropyrido[2,3-d]pyrimidin-3(2H)-yl]cyclohexyl}-6-methyl-pyridine-2-carboxamide] | 0.00631 nM
7 | Cc1cc(C(=O)N[C@H]2CC[C@@H](n3c(=O)c4cc(F)cnc4n(-c4cccc(-c5ccc(CN6CCN(C(C)C)CC6)cc5)c4)c3=O)CC2)no1 [Example 243, N-{cis-4-[6-fluoro-1-{4′-[(4-isopropylpiperazin-1-yl)methyl]biphenyl-3-yl}-2,4-dioxo-1,4-di-hydropyrido[2,3-d]pyrimidin-3(2H)-yl]cyclohexyl}-5-methyl-isoxazole-3-carboxamide] | 0.0398 nM
8 | Cc1nc(C(=O)N[C@H]2CC[C@@H](n3c(=O)c4cc(F)cnc4n(-c4cccc(-c5ccc(CN6CCN(C(C)C)CC6)cc5)c4)c3=O)CC2)cs1 [Example 244, N-{cis-4-[6-fluoro-1-{4′-[(4-isopropylpiperazin-1-yl)methyl]biphenyl-3-yl}-2,4-dioxo-1,4-di-hydropyrido[2,3-d]pyrimidin-3(2H)-yl]cyclohexyl}-2-methyl-1,3-thiazole-4-carboxamide] | 0.01 nM
9 | CC(C)N1CCN(Cc2ccc(-c3cccc(-n4c(=O)n([C@H]5CC[C@@H](NC(=O)c6ccsc6)CC5)c(=O)c5cc(F)cnc54)c3)cc2)CC1 [Example 245, N-{cis-4-[6-fluoro-1-{4′-[(4-isopropylpiperazin-1-yl)methyl]biphenyl-3-yl}-2,4-dioxo-1,4-di-hydropyrido[2,3-d]pyrimidin-3(2H)-yl]cyclohexyl}thiophene-3-carboxamide] | 0.02 nM
10 | O=c1c2cc(F)cnc2n(-c2cccc(-c3ccc(O)cc3CN3CCOCC3)c2)c(=O)n1[C@H]1CC[C@@H](NCc2cn3cc(F)ccc3n2)CC1 [Example 246] | 0.02 nM
11 | Cn1cc(CN[C@H]2CC[C@@H](n3c(=O)c4cc(F)cnc4n(-c4cccc(-c5ccc(O)cc5CN5CCOCC5)c4)c3=O)CC2)c(-c2ccccc2)n1 [Example 247, 6-Fluoro-1-[4′-hydroxy-2′-(morpholin-4-ylmethyl)biphenyl-3-yl]-3-(cis-4-{[(1-methyl-3-phenyl-1H-pyrazol-4-yl)methyl]amino}cyclohexyl)pyrido[2,3-d]pyrimidine-2,4(1H,3H)-dione] | 0.2 nM
12 | O=c1c2cc(F)cnc2n(-c2cccc(-c3ccc(O)cc3CN3CCOCC3)c2)c(=O)n1[C@H]1CC[C@@H](NCCCc2ccccc2)CC1 [Example 248, 6-Fluoro-1-[4′-hydroxy-2′-(morpholin-4-ylmethyl)biphenyl-3-yl]-3-{cis-4-[(3-phenylpropyl)amino]cyclohexyl}pyrido[2,3-d]pyrimidine-2,4(1H,3H)-dione] | 1.26 nM
13 | O=c1c2cc(F)cnc2n(-c2cccc(-c3ccc(O)cc3CN3CCOCC3)c2)c(=O)n1[C@H]1CC[C@@H](NCC2CC2)CC1 [Example 249, 3-{cis-4-[(Cyclopropylmethyl)amino]cyclohexyl}-6-fluoro-1-[4′-hydroxy-2′-(morpholin-4-ylmethyl)biphenyl-3-yl]pyrido[2,3-d]pyrimidine-2,4(1H,3H)-dione] | 6.31 nM
14 | O=c1c2cc(F)cnc2n(-c2cccc(-c3ccc(O)cc3CN3CCOCC3)c2)c(=O)n1[C@H]1CC[C@@H](NCc2cc(Cl)ccc2O)CC1 [Example 250, 3-{cis-4-[(5-Chloro-2-hydroxybenzyl)amino]cyclohexyl}-6-fluoro-1-[4′-hydroxy-2′-(morpholin-4-ylmethyl)biphenyl-3-yl]pyrido[2,3-d]pyrimidine-2,4(1H,3H)-dione] | 0.2 nM

More lines, now with the values ahead:

Row | IC50 | Structure (SMILES)
15 | 0.1 nM | Cc1cc(CN[C@H]2CC[C@@H](n3c(=O)c4cc(F)cnc4n(-c4cccc(-c5ccc(O)cc5CN5CCOCC5)c4)c3=O)CC2)nn1C [Example 251, 3-(cis-4-{[(1,5-Dimethyl-1H-pyrazol-3-yl)methyl]amino}cyclohexyl)-6-fluoro-1-[4′-hydroxy-2′-(morpholin-4-ylmethyl)biphenyl-3-yl]pyrido[2,3-d]pyrimidine-2,4(1H,3H)-dione]
16 | 0.398 nM | O=c1c2cc(F)cnc2n(-c2cccc(-c3ccc(O)cc3CN3CCOCC3)c2)c(=O)n1[C@H]1CC[C@@H](NCc2cn3c(n2)CCCC3)CC1 [Example 252, 6-Fluoro-1-[4′-hydroxy-2′-(morpholin-4-ylmethyl)biphenyl-3-yl]-3-{cis-4-[(5,6,7,8-tetrahydroimidazo[1,2-a]pyridin-2-ylmethyl)amino]cyclohexyl}pyrido[2,3-d]pyrimidine-2,4(1H,3H)-dione]
17 | 0.0158 nM | O=c1c2cc(F)cnc2n(-c2cccc(-c3ccc(O)cc3CN3CCSCC3)c2)c(=O)n1[C@H]1CC[C@@H](NCc2cn3cc(F)ccc3n2)CC1 [Example 253, 6-Fluoro-3-(cis-4-{[(6-fluoroimidazo[1,2-c]pyridin-2-yl)methyl]amino}cyclohexyl)-1-[4′-hydroxy-2′-(thiomorpholin-4-ylmethyl)biphenyl-3-yl]pyrido[2,3-d]pyrimidine-2,4(1H,3H)-dione]
18 | 0.0316 nM | O=c1c2cc(F)cnc2n(-c2cccc(-c3ccc(O)cc3CN3CCCOCC3)c2)c(=O)n1[C@H]1CC[C@@H](NCc2cn3cc(F)ccc3n2)CC1 [Example 254, 6-Fluoro-3-(cis-4-{[(6-fluoroimidazo[1,2-a]pyridin-2-yl)methyl]amino}cyclohexyl)-1-[4′-hydroxy-2′-(1,4-oxazepan-4-ylmethyl)biphenyl-3-yl]pyrido[2,3-d]pyrimidine-2,4(1H,3H)-dione]
19 | 0.126 nM | O=c1c2cc(F)cnc2n(-c2cccc(-c3ccc(O)cc3CN3CCCCC3)c2)c(=O)n1[C@H]1CC[C@@H](NCc2cn3cc(F)ccc3n2)CC1 [Example 255, 6-Fluoro-3-(cis-4-{[(6-fluoroimidazo[1,2-c]pyridin-2-yl)methyl]amino}cyclohexyl)-1-[4′-hydroxy-2′-(piperidin-1-ylmethyl)biphenyl-3-yl]pyrido[2,3-d]pyrimidine-2,4(1H,3H)-dione]
20 | 0.0158 nM | C[C@@H]1CN(Cc2cc(O)ccc2-c2cccc(-n3c(=O)n([C@H]4CC[C@@H](NCc5cn6cc(F)ccc6n5)CC4)c(=O)c4cc(F)cnc43)c2)C[C@H](C)O1 [Example 256]
21 | 0.794 nM | COc1ccc(CN[C@H]2CC[C@@H](n3c(=O)c4cc(F)cnc4n(-c4cccc(-c5ccc(CN6CCN(C(C)C)CC6)cc5)c4)c3=O)CC2)cc1OC(C)=O [Example 257, 5-[({cis-4-[6-Fluoro-1-{4′-[(4-isopropylpiperazin-1-yl)methyl]biphenyl-3-yl}-2,4-dioxo-1,4-dihydropyrido[2,3-d]pyrimidin-3(2H)-yl]cyclohexyl}amino)methyl]-2-methoxyphenyl acetate]
22 | 2 nM | COc1ccc(CN[C@H]2CC[C@@H](n3c(=O)c4cc(F)cnc4n(-c4cccc(-c5ccc(CN6CCCOCC6)cc5)c4)c3=O)CC2)cc1Cl [Example 258, 3-{cis-4-[(3-Chloro-4-methoxybenzyl)amino]cyclohexyl}-6-fluoro-1-[4′-(1,4-oxazepan-4-ylmethyl)biphenyl-3-yl]pyrido[2,3-d]pyrimidine-2,4(1H,3H)-dione]
23 | 0.631 nM | CC(C)N1CCN(Cc2ccc(-c3cccc(-n4c(=O)n([C@H]5CC[C@@H](NCc6cccc(C#N)c6)CC5)c(=O)c5cc(F)cnc54)c3)cc2)CC1 [Example 259, 3-[({cis-4-[6-fluoro-1-{4′-[(4-isopropylpiperazin-1-yl)methyl]biphenyl-3-yl}-2,4-dioxo-1,4-dihydropyrido[2,3-d]pyrimidin-3(2H)-yl]cyclohexyl}amino)methyl] benzonitrile]
